Measurements: US4505932A, “Method of producing α2 -adrenergic receptor agonist activity” (Abbott Laboratories, priority 1984, dated 1985)
pEC50, pKi: −log10 of the molar value. Counter-ions that a name gives are not always drawn.

Legend:
[1] = biological target: α2 -adrenergic receptors; format: binding, rat; conditions: for pKi: rat brain cortex, [3H] rauwolscine, read-out: KIα2 (dissociation constant); for KIα1/KIα2: selectivity ratio, rat liver α1 vs rat brain cortex α2
[2] = biological target: T1, α1 -adrenergic receptors (Rattus norvegicus, UniProt P15823); assay: radioligand binding, [3H] prazosin displacement in rat liver; conditions: read-out: KIα1 (dissociation constant)
T1 construct: from tissue; host or cells: rat liver
T1 sequence (P15823 1-515): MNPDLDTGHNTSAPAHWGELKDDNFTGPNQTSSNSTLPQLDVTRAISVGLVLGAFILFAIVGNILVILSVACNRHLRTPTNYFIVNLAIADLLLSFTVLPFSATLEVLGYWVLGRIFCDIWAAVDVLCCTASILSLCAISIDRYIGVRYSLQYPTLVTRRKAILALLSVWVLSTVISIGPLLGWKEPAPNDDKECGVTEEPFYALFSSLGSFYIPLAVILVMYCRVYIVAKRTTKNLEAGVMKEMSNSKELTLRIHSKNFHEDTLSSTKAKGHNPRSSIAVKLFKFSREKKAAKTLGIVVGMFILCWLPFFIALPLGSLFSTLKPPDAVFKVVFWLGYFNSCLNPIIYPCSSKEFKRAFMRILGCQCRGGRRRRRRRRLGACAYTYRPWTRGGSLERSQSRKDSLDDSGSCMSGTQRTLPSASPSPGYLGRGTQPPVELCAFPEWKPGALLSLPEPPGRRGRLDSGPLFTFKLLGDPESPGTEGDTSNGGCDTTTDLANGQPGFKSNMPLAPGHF

[3] = system: spontaneously hypertensive rat; assay: arterial blood pressure and heart rate in the spontaneously hypertensive rat (tail cuff); format: in vivo
Protocol: Two groups of Okamoto rats, which develop hypertension spontaneously when reaching young adulthood, are deprived of food for a period of 16 hours and are placed in semirestraining wire mesh cylinders maintained at a constant temperature of 36° C. An occluding cuff, operatively connected to a programmed sphygmomanometer, is placed over the tail of each rat of the group and retained near the tail base. […] A photocell is placed distal to the cuff to detect pulses resulting from the forward motion of blood flow with each heartbeat of the rat. As the pressure in the cuff increases, measurable pulses disappear at the point where the cuff pressure equals the arterial blood pressure. Measurable pluses reappear during deflation at approximately the same pressure, and arterial blood pressure is thereby established by cuff pressure at the point of pulse appearance. The heart rate is determined from the arterial pulse wave. Doses of 30 or 100 mg./kg. of the preferred compound of Example 6 were administered orally to each rat of the test groups and five interference-free signals were recorded on a Model 7 Grass polygraph for each rat at various measurement periods following administration.

[4] = system: α-adrenergic receptor; assay: isolated rabbit aorta contraction, α-adrenergic receptor agonist activity; format: cell-based; conditions: isolated rabbit aorta strip
Protocol: Female rabbits, weighing 2 to 5 kg., are sacrificed by cervical dislocation. The thoracic cavity is immediately opened and the descending aorta is removed and placed in a petrie dish containing an aqueous buffer solution (Krebs buffer) of 119 mM NaCl, 25 mM […], 4.7 mM KCl, 1.5 mM MgSO4, 1.2 mM KH2 PO4, 2.5 mM CaCl2, 11 mM glucose, 0.03 mM EDTA and 0.005 mM sodium ascorbate, adjusted to a pH of 7.4. The buffer solution is continuously aerated with a mixture of 95% O2 and 5% CO2 gases. The aorta is placed on cylindrical sticks and cleaned of excess fat and connective tissue, then cut into 2 tissue segments approximately 20 mm in length. Each segment of aorta is then spiraled in strips 3.5 mm wide by turning the stick as a scapel is applied, while leaving a section of 2-3 mm at each end of the aorta section intact. The spiraled tissue is mounted in an aerated (as above) tissue bath of 10 ml. of Kreb's buffer and is attached to a Grass force transducer with an initial applied tension of 2 grams. The tissue is allowed to equilibrate in the tissue bath at a temperature of 37°±0.5° C. until the tension on the force transducer stabilizes at 2 grams.
The tissue is washed with Krebs buffer until it relaxes to baseline tension.

| SMILES | pKi [1] | pKi [2] | KIα1/KIα2 [1] | arterial blood pressure ([3]; 30 or 100 mg./kg. orally, Okamoto rats) | heart rate ([3]; spontaneously hypertensive rat, oral) | agonist character (intrinsic activity vs norepinephrine; >75% = full agonist) [4] | pEC50 ([4]; contraction, read-out: ED50 (concentration producing half maximum response) in aorta strip) |
| --- | --- | --- | --- | --- | --- | --- | --- |
| Clc1cccc(Cl)c1N=C1NCCN1 [Clonidine, clonidine, reference compound] | 7.47 | – | – | – | – | – | – |
| NCC1CCc2c1ccc(O)c2O (stereo not drawn) [B] | 7.82 | 5.06 | 575 | – | – | – | – |
| CNC[C@H](O)c1ccc(O)c(O)c1 [Epinephrine, epinephrine, reference compound] | 7.28 | – | – | – | – | – | – |
| CNCC1CCc2c1ccc(O)c2O (stereo not drawn) [Example 10, 1-N-Methylaminomethyl-4,5-dihydroxy indane hydrobromide] | 8.22 | 5.77 | 282 | – | – | – | – |
| CN(C)CC1CCc2c1ccc(O)c2O (stereo not drawn) [Example 6, 1-N,N-Dimethylaminomethyl-4,5-dihydroxy indane hydrobromide] | 7.60 | 5.16 | 276 | decrease the arterial blood pressure | decrease | full agonist | 5.80 |
